Values joined by “and” are separate entries in the source; they are usually repeats but may differ in a detail not shown here. Equal entries are not always repeated.
Tests used:
SARS-CoV-2 [1] = test: microbe, parasite or virus in culture; format: functional, organism-based, Chlorocebus sabaeus, Vero C1008
in vitro = settings: chlorocebus sabaeus, Vero E6 (Vero C1008) cells
SARS-CoV-2 [2] = test: microbe, parasite or virus in culture; settings: Severe acute respiratory syndrome coronavirus 2, Vero C1008, 48 h
SARS-CoV-2 [3] = settings: vero c1008
Vero C1008 = settings: chlorocebus sabaeus, vero c1008, 48 h
[4] = Severe acute respiratory syndrome coronavirus 2, Vero C1008, 48 h, read-out: IC50
[5] = Severe acute respiratory syndrome coronavirus 2, Vero C1008, 48 h, read-out: pIC50 (converted)

Molecule: COc1cccc([C@@H](C)NCCCc2ccccc2Cl)c1
- IC50 (SARS-CoV-2 [1]; [4]): > 100 µM
- IC50 (SARS-CoV-2 [1]; [5]): > 100 µM
- CC50 at 48 h (in vitro; CC50): 28.2 µM
- CC50 at 48 h (in vitro; pCC50): 28.2 µM
- IC50 (SARS-CoV-2 [2]): 16.6 µM
- IC50 (SARS-CoV-2 [2]; read-out: pIC50 (converted)): 16.6 µM
- IC50 (SARS-CoV-2 [3]): > 20 µM
- pIC50 (SARS-CoV-2 [3]): < 4.7

Molecule: CNCC(O)C(O)C(O)C(O)CO.Cc1c(Nc2ncccc2C(=O)O)cccc1C(F)(F)F
- pIC50 (SARS-CoV-2 [3]): < 4.7

Molecule: CC(C)(NC(=O)O[C@@H]1CN2CCC1CC2)c1csc(-c2ccc(F)cc2)n1
- IC50 (SARS-CoV-2 [3]): > 20 µM
- pIC50 (SARS-CoV-2 [3]): < 4.7

Molecule: O=C(O)Cc1cn(-c2ccccc2)nc1-c1ccc(Cl)cc1.O=C(O)Cc1cn(-c2ccccc2)nc1-c1ccc(Cl)cc1.[Ca+2]
- pIC50 (SARS-CoV-2 [3]): < 4.7

Molecule: CNC[C@H]1C[C@@H]2c3ccccc3Cc3ccc(F)cc3[C@H]2O1
- CC50 (Vero C1008; 48 h): ~22.4 µM
- pCC50 (Vero C1008; 48 h): ~ 4.65
- IC50 (SARS-CoV-2 [1]; [4]): > 100 µM
- IC50 (SARS-CoV-2 [1]; [5]): > 100 µM
- pIC50 (SARS-CoV-2 [1]; vero c1008): < 4.3
- IC50 (SARS-CoV-2 [1]; vero c1008, read-out: IC50): > 50.1 µM
- CC50 at 48 h (in vitro; CC50): 19.5 µM
- CC50 at 48 h (in vitro; pCC50): 19.5 µM
- IC50 (SARS-CoV-2 [2]): > 100 µM
- IC50 (SARS-CoV-2 [2]; read-out: pIC50 (converted)): > 100 µM

Molecule: O=C(O)c1cc(=O)c2c(OCC(O)COc3cccc4oc(C(=O)O)cc(=O)c34)cccc2o1.[NaH]
- pIC50 (SARS-CoV-2 [3]): < 4.7

Molecule: O=c1cnn([C@@H]2O[C@H](CO)[C@@H](O)[C@H]2O)c(=O)[nH]1 [6-AZAURIDINE]
- IC50 (SARS-CoV-2 [3]): > 100 µM

Molecule: COC(=O)C1=C(C)NC(C)=C(C(=O)OC2CCCN(Cc3ccccc3)C2)C1c1cccc([N+](=O)[O-])c1 (centres undefined) [BENIDIPINE]
- IC50 (SARS-CoV-2 [1]; [4]): > 100 µM
- IC50 (SARS-CoV-2 [1]; [5]): > 100 µM
- CC50 at 48 h (in vitro; CC50): 14.8 µM
- CC50 at 48 h (in vitro; pCC50): 14.8 µM
- IC50 (SARS-CoV-2 [3]): > 100 µM

Molecule: O=[N+]([O-])c1ccc(Cl)c([N+](=O)[O-])c1 [DINITROCHLOROBENZENE]
- IC50 (SARS-CoV-2 [3]): > 20 µM
- pIC50 (SARS-CoV-2 [3]): < 4.7

Molecule: O=S(=O)(O)c1cc(O)ccc1O [DOBESILIC ACID]
- pIC50 (SARS-CoV-2 [3]): < 4.7

Molecule: CN(C)c1ccc(O)c2c1C[C@H]1C[C@H]3[C@H](N(C)C)C(O)=C(C(N)=O)C(=O)[C@@]3(O)C(O)=C1C2=O.Cl [MINOCYCLINE HYDROCHLORIDE]
- pIC50 (SARS-CoV-2 [3]): < 4.7

Molecule: OC(CNCC(O)C1CCc2cc(F)ccc2O1)C1CCc2cc(F)ccc2O1 (centres undefined) [NEBIVOLOL]
- IC50 (SARS-CoV-2 [1]; [4]): > 100 µM
- IC50 (SARS-CoV-2 [1]; [5]): > 100 µM
- CC50 at 48 h (in vitro; CC50): 8.71 µM
- CC50 at 48 h (in vitro; pCC50): 8.71 µM
- IC50 (SARS-CoV-2 [2]): > 10 µM
- IC50 (SARS-CoV-2 [2]; read-out: pIC50 (converted)): > 10 µM
- IC50 (SARS-CoV-2 [3]): > 20 µM
- pIC50 (SARS-CoV-2 [3]): < 4.7

Molecule: CC(Cc1ccccc1)NCCC(c1ccccc1)c1ccccc1 (centres undefined) [PRENYLAMINE]
- IC50 (SARS-CoV-2 [1]; [4]): > 100 µM
- IC50 (SARS-CoV-2 [1]; [5]): > 100 µM
- CC50 at 48 h (in vitro; CC50): 10.7 µM
- CC50 at 48 h (in vitro; pCC50): 10.7 µM
- IC50 (SARS-CoV-2 [3]): 8.51 µM and > 20 µM
- pIC50 (SARS-CoV-2 [3]): 5.07 and < 4.7

Molecule: CC1(C)[C@H](C(=O)[O-])N2C(=O)C[C@H]2S1(=O)=O.[Na+] [SULBACTAM SODIUM]
- pIC50 (SARS-CoV-2 [3]): < 4.7

Molecule: CCCCCCCCNC(C)C(O)c1ccc(SC(C)C)cc1 (centres undefined) [SULOCTIDIL]
- IC50 (SARS-CoV-2 [1]; [4]): > 100 µM
- IC50 (SARS-CoV-2 [1]; [5]): > 100 µM
- CC50 at 48 h (in vitro; CC50): 3.27 µM
- CC50 at 48 h (in vitro; pCC50): 3.24 µM
- IC50 (SARS-CoV-2 [3]): > 100 µM

Molecule: CN1CCN(CCCN2c3ccccc3Sc3ccc(C(F)(F)F)cc32)CC1 [TRIFLUOPERAZINE]
- IC50 (SARS-CoV-2 [1]; [4]): > 100 µM
- IC50 (SARS-CoV-2 [1]; [5]): > 100 µM
- CC50 at 48 h (in vitro; CC50): 7.94 µM
- CC50 at 48 h (in vitro; pCC50): 7.94 µM
- IC50 (SARS-CoV-2 [2]): 6.46 µM
- IC50 (SARS-CoV-2 [2]; read-out: pIC50 (converted)): 6.46 µM

Molecule: CC[C@@H]1C(=O)N(C)c2cnc(Nc3ccc(C(=O)N[C@H]4CC[C@H](N5CCN(CC6CC6)CC5)CC4)cc3OC)nc2N1C(C)C [VOLASERTIB]
- IC50 (SARS-CoV-2 [1]; [4]): > 50.1 µM
- IC50 (SARS-CoV-2 [1]; [5]): > 50.1 µM
- CC50 at 48 h (in vitro; CC50): 0.234 µM
- CC50 at 48 h (in vitro; pCC50): 0.234 µM
- IC50 (SARS-CoV-2 [2]): > 50.1 µM
- IC50 (SARS-CoV-2 [2]; read-out: pIC50 (converted)): > 50.1 µM

Molecule: CN(C)CCOC1=Cc2ccccc2Sc2ccc(Cl)cc21 [ZOTEPINE]
- IC50 (SARS-CoV-2 [1]; [4]): > 100 µM
- IC50 (SARS-CoV-2 [1]; [5]): > 100 µM
- CC50 at 48 h (in vitro; CC50): 12.3 µM
- CC50 at 48 h (in vitro; pCC50): 12.3 µM
- IC50 (SARS-CoV-2 [2]): > 100 µM
- IC50 (SARS-CoV-2 [2]; read-out: pIC50 (converted)): > 100 µM

Molecule: OCCN1CCN(CC/C=C2/c3ccccc3Sc3ccc(Cl)cc32)CC1 [ZUCLOPENTHIXOL]
- IC50 (SARS-CoV-2 [1]; [4]): > 100 µM
- IC50 (SARS-CoV-2 [1]; [5]): > 100 µM
- CC50 at 48 h (in vitro; CC50): 6.68 µM
- CC50 at 48 h (in vitro; pCC50): 6.61 µM
- IC50 (SARS-CoV-2 [3]): 7.24 µM and > 20 µM
- pIC50 (SARS-CoV-2 [3]): 5.14 and < 4.7

Molecule: ATSM COPPER (II)
- IC50 (SARS-CoV-2 [3]): > 20 µM
- pIC50 (SARS-CoV-2 [3]): < 4.7

Molecule: FLUPENTIXOL
- CC50 (Vero C1008): 7.67 µM
- pCC50 (Vero C1008): 5.12
- pIC50 (SARS-CoV-2 [1]; vero c1008): < 4
- IC50 (SARS-CoV-2 [1]; vero c1008, read-out: IC50): > 100 µM
- IC50 (SARS-CoV-2 [3]): 8.71 µM and > 20 µM
- pIC50 (SARS-CoV-2 [3]): 5.06 and < 4.7

Molecule: NYSTATIN
- IC50 (SARS-CoV-2 [3]): > 20 µM
- pIC50 (SARS-CoV-2 [3]): < 4.7

Molecule: RAUWOLFIA SERPENTINA
- IC50 (SARS-CoV-2 [3]): > 20 µM
- pIC50 (SARS-CoV-2 [3]): < 4.7

Reference: ChEMBL document CHEMBL4651402, “Screening of ~5500 FDA-approved drugs and clinical candidates for anti-SARS-CoV-2 activity” (2021)
